Data on eight molecules can be found in ChEMBL document CHEMBL1146314, “Methotrexate gamma-hydroxamate derivatives as potential dual target antitumor drugs” (Bioorg Med Chem, 2007).

The target in experiment [1] is T1, 72 kDa type IV collagenase (Homo sapiens, UniProt P08253). Put plainly: Inhibition of human recombinant MMP2 at 100 uM.
Target sequence in this assay (P08253 110-660 limits assumed): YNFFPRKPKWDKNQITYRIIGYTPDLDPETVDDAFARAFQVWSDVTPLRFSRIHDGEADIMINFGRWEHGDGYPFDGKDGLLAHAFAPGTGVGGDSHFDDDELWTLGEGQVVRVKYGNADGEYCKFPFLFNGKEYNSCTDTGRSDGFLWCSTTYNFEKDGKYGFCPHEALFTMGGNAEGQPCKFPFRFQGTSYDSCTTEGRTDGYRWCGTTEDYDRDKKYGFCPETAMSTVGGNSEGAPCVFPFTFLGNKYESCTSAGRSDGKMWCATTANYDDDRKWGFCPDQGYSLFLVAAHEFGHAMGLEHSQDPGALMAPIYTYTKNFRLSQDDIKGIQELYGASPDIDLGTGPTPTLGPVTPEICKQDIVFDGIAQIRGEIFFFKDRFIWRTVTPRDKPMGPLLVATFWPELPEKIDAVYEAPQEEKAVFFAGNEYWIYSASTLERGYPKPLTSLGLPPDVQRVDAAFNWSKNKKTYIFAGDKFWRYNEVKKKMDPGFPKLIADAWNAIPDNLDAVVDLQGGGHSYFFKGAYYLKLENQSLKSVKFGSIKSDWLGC
Experiment [2] addresses T2, Matrix metalloproteinase-9 (Homo sapiens, UniProt P14780). Put plainly: Inhibition of human recombinant MMP9 at 100 uM.
The target of experiment [3] is T3, Matrilysin (Homo sapiens) (UniProt P09237).
T3 sequence (whole entry): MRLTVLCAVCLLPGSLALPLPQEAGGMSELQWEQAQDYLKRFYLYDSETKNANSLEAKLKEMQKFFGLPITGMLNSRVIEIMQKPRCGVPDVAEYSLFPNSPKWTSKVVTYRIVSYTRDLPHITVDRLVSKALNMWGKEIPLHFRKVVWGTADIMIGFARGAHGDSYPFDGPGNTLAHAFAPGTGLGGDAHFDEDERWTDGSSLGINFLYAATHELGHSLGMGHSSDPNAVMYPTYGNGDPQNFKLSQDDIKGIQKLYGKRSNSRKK
Put plainly: Inhibition of human recombinant MMP7 at 100 uM.

The subject of experiment [4] is A549. Put plainly: Antiproliferative activity against A549 cells after 72 hrs by MTT assay. Type of experiment: functional, cell-based. As to conditions: Homo sapiens, A549, 72 h. In general terms: Tetrazolium assays rely on reduction of a dye to a coloured formazan, in cell work by metabolically active cells.
Experiment [5] concerns the target T4, Matrix metalloproteinase-14 (Homo sapiens, UniProt P50281). Put plainly: Inhibition of human recombinant MMP14 at 100 uM.
Experiment [6] concerns PPC-1. Put plainly: Antiproliferative activity against PPC1 cells after 72 hrs by MTT assay. Type of experiment: functional, cell-based. As to conditions: Homo sapiens, PPC-1, 72 h.
Experiment [7] can be described thus: Antiproliferative activity against Tsu-Pr1 cells after 72 hrs by MTT assay. Type of experiment: functional, cell-based. The note with it: Homo sapiens, TSU-Pr1, 72 h.
In experiment [8] the test system is A549. Put plainly: Antiproliferative activity against A549 cells after 72 hrs in folate depleted media. Type of experiment: functional, cell-based. As to conditions: Homo sapiens, A549, 72 h.
Experiment [9] concerns PPC-1. Put plainly: Antiproliferative activity against PPC1 cells after 72 hrs in folate depleted media. In kind it is functional, cell-based. As to conditions: Homo sapiens, PPC-1, 72 h.
A short description of experiment [10]: Antiproliferative activity against Tsu-Pr1 cells after 72 hrs in folate depleted media. The note with it: Homo sapiens, TSU-Pr1, 72 h. In kind it is functional, cell-based.
For experiment [11], the target named is T4, Matrix metalloproteinase-14. Put plainly: Inhibition of human recombinant MMP14.
For experiment [12] the target is unchanged. Put plainly: Ratio of IC50 of drug to CGS 27023A for human recombinant MMP14.
The target in experiment [13] is T5, Matrilysin (Homo sapiens, UniProt P09237).
T5 sequence (P09237 whole entry): T3 sequence (whole entry)
Put plainly: Inhibition of human recombinant MMP7.

Experiment [14] deals with T3, Matrilysin (Homo sapiens). Put plainly: Ratio of IC50 of drug to CGS 27023A for human recombinant MMP7.
Experiment [15] addresses T6, Dihydrofolate reductase (Homo sapiens, UniProt P00374).
T6 sequence (P00374 whole entry): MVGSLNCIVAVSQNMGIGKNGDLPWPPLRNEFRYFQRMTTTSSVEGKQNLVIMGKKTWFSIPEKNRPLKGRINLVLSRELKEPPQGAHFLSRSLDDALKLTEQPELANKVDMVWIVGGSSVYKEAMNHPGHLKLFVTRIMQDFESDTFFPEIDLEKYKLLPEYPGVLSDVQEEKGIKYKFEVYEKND
Description: Inhibition of DHFR using dihydrofolic acid substrate

For experiment [16], the target named is T2, Matrix metalloproteinase-9. Put plainly: Ratio of IC50 of drug to CGS 27023A for human recombinant MMP9.
The target in experiment [17] is T2, Matrix metalloproteinase-9. Put plainly: Inhibition of human recombinant MMP9.
Experiment [18] concerns the target T1, 72 kDa type IV collagenase. Put plainly: Inhibition of human recombinant MMP2.
Target sequence in this assay (P08253 whole entry): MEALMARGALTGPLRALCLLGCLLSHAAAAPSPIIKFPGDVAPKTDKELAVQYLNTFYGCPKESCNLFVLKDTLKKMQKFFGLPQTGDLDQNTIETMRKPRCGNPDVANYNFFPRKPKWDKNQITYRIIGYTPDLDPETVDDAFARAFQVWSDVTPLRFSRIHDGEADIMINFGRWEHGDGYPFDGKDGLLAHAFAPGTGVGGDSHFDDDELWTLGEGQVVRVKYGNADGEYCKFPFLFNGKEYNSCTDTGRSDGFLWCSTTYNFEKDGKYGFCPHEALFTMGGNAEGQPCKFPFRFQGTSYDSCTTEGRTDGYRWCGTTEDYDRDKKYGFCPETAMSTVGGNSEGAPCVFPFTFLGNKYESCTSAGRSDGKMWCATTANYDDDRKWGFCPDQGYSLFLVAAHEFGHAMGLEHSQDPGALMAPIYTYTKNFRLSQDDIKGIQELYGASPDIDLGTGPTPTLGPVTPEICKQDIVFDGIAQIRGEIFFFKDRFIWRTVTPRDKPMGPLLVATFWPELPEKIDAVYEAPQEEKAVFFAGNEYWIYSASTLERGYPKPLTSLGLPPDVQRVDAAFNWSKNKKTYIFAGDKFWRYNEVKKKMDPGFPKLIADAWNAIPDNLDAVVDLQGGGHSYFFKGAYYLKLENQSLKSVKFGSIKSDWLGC
For experiment [19], the target named is T1, 72 kDa type IV collagenase. Put plainly: Ratio of IC50 of drug to CGS 27023A for human recombinant MMP2.
Target sequence in this assay (P08253 110-660 limits assumed): as the sequence (P08253 110-660 limits assumed) above
In experiment [20] the target is T6, Dihydrofolate reductase. The source holds these as a separate data set.
Description: Inhibition of DHFR using folic acid substrate

T2 sequence (P14780 whole entry): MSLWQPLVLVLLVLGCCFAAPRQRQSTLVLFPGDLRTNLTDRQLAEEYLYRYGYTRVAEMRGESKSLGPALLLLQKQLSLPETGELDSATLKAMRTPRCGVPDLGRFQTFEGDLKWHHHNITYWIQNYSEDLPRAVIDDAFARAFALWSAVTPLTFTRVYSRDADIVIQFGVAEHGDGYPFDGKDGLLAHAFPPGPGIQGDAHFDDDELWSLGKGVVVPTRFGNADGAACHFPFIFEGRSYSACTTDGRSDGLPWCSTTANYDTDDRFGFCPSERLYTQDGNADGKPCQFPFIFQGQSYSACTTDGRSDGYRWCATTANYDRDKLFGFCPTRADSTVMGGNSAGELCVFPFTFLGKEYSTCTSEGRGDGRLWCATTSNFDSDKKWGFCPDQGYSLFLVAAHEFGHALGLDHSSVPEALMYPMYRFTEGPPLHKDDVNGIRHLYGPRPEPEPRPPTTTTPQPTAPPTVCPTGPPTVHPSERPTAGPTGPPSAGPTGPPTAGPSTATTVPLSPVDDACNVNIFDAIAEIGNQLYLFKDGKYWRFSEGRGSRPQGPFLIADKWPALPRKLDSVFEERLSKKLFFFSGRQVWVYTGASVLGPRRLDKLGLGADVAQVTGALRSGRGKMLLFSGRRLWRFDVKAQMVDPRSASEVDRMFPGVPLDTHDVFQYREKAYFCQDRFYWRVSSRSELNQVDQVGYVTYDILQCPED

By inhibition is commonly meant the change of the read-out against control, counted positive when it falls. A word on the IC50: it is the point on the concentration scale where inhibition reaches its midpoint. For the molecule `Nc1nc2ncc(CNc3ccc(C(=O)N[C@@H](CCC(=O)NO)C(=O)O)cc3)nc2c(=O)[nH]1`, the inhibition came to 66% in experiment [1], 55% in [2], 53% in [3] and 42% in [5]. In addition, the IC50 in experiment [4] was 100 µM; in experiment [6], 80 µM; in [7], 120 µM.
In the case of `CN(Cc1cnc2nc(N)nc(N)c2n1)c1ccc(C(=O)N[C@@H](CCC(=O)N[C@@H](Cc2ccccc2)C(=O)NO)C(=O)O)cc1`, the IC50 in experiment [8] was 0.5 µM; in [9], 0.5 µM; in [10], 0.12 µM; in experiment [11] it was 70 µM; in experiment [4], 6.5 µM; in experiment [6], 4.8 µM. The concentration for half-maximal inhibition (IC50) in experiment [13] is 44 µM; in [15] it was 0.17 µM; in experiment [17] it was 15 µM; in experiment [18], 60 µM; in experiment [7], 2 µM; in experiment [20], 0.25 µM. Also, the Ratio IC50 was 3040 in experiment [12], 440 in experiment [14], 3000 in [16] and 2500 in [19].
For `COc1ccc(S(=O)(=O)N(Cc2cccnc2)[C@@H](C(=O)NO)C(C)C)cc1` [CGS-27023A], the IC50 in experiment [11] stood at 0.023 µM.
Regarding `NC1=NC(=O)C2N=C(CNc3ccc(C(=O)N[C@@H](CCC(=O)N4CCC[C@H]4C(=O)NO)C(=O)O)cc3)C=NC2=N1` (stereo not given in full), the inhibition in experiment [1] was found to be 58%; in experiment [3], 54%. Moreover, the half-inhibitory concentration (IC50) in experiment [4] worked out at 130 µM; in experiment [6], 120 µM; in experiment [7] it was 80 µM.
On to `CN(Cc1cnc2nc(N)nc(N)c2n1)c1ccc(C(=O)N[C@@H](CCC(=O)NO)C(=O)O)cc1`, for which the half-inhibitory concentration (IC50) was 0.1 µM in experiment [8]; 0.05 µM in experiment [9]; 0.01 µM in [10]; 6 µM in [4]; 2 µM in experiment [6]; 100 µM in [13]. Moreover, the IC50 in [15] came to 0.07 µM; in [7], 2 µM; in experiment [20], 0.17 µM. The inhibition stood at 67% in experiment [1], 61% in [2] and 48% in experiment [5].
Regarding `CN(Cc1cnc2nc(N)nc(N)c2n1)c1ccc(C(=O)N[C@@H](CCC(=O)O)C(=O)O)cc1` [METHOTREXATE], the IC50 in experiment [8] was found to be 0.02 µM; in [9], 0.01 µM; in [10] it was 0.008 µM; in [4] it was 0.1 µM; in [6], 0.1 µM; in experiment [7] it was 0.1 µM.
As for `Nc1nc2ncc(CNc3ccc(C(=O)N[C@@H](CCC(=O)N[C@@H](Cc4ccccc4)C(=O)NO)C(=O)O)cc3)nc2c(=O)[nH]1`, the 50% inhibitory concentration (IC50) turned out to be 80 µM in experiment [11]; 110 µM in [4]; 70 µM in [6]; 15 µM in experiment [13]; 22 µM in [17]; 65 µM in [18]. This molecule also returned an IC50 in experiment [7] of 150 µM. For the same molecule, the Ratio IC50 in experiment [12] was 3480; in experiment [14], 150; in experiment [16], 4400; in [19] it was 2710.
In the case of `CN(Cc1cnc2nc(N)nc(N)c2n1)c1ccc(C(=O)N[C@@H](CCC(=O)N2CCC[C@H]2C(=O)NO)C(=O)O)cc1`, the 50% inhibitory concentration (IC50) in experiment [8] came to 0.5 µM; in [9], 0.2 µM; in experiment [10] it was 0.1 µM; in experiment [4] it was 7.5 µM; in [6], 1.8 µM; in experiment [15], 0.12 µM. Besides, the IC50 stood at 2.3 µM in experiment [7] and 0.13 µM in experiment [20]. Moreover, the inhibition turned out to be 56% in experiment [1], 61% in experiment [2], 43% in experiment [3] and 47% in [5].
